From patent publication US20230083885A1, “MODULATORS OF INTEGRATED STRESS RESPONSE PATHWAY” (Praxis Biotech LLC, priority 2021, published 2023)
pIC50: −log10 of the molar value. Where two headings read alike, the source gives them in different places.

Experiments:
ATF4 = ATF4 expression inhibition assay (ATF4 5'UTR luciferase reporter, thapsigargin-stressed); type: cell-based; conditions: Homo sapiens, HEK-293T, read-out: ATF4 inhibition
Description: The ATF4 reporter was prepared by fusing the human full length 5′UTR of ATF4 (NCBI Accession No. BC022088.2) upstream of the firefly luciferase coding sequence lacking the initiator methionine. The fused sequence was cloned into pLenti-EF1a-C-Myc-DDK-IRES-Puro cloning vector (Origen #PS100085) using standard methods.
HEK293T cells carrying the ATF4 luciferase reporter were plated on 96-well plates (Nunc) at 10,000 cells per well. Cells were treated two days after seeding with 100 nM thapsigargin (Tg) (Sigma-Aldrich #T9033) in the presence of different concentrations of selected compounds ranging from 0.1 nM to 10 μM. Cells without treatment or cells treated with Tg alone were used as controls. Assay plates containing cells were incubated for 3 hours at 37° C.
Luciferase reactions were performed using Luciferase Assay System (Promega #E1501) as specified by the manufacturer. Luminescence was read with an integration time of 1 s and a gain of 110 using a Cytation-5 multi-mode microplate reader (BioTek).

[1] = system: Chinese hamster ovary (CHO) cells; assay: Protein synthesis assay (puromycin incorporation, Western blot); type: cell-based; conditions: Cricetulus griseus, read-out: % Protein synthesis relative to untreated (1 μM test compound)
Description: Chinese hamster ovary (CHO) cells were maintained at 37° C. and 5% CO2 in Dulbecco's Modified Eagle's Media (DMEM) supplemented with 10% fetal bovine serum, 2 mM L-glutamine, 100 U/ml penicillin, and 100 μg/ml streptomycin. After reaching 80% of confluence, cells were detached and seeded on 6 well plates in complete media, allowed to recover overnight and treated for 2 hours with 1 μM of the test compound (to assess protein synthesis levels in unstressed condition), or for 2 hours with 300 nM Tg in the presence of 1 μM of the test compound (to assess the recovery of protein synthesis in a stressed condition). Cells with Tg alone were used as controls.
After the 2 hours treatments, media were replaced by adding 10 μg/ml puromycin (Sigma Aldrich #P8833) in complete media for 30 min. Media were removed and cells were lysed with SDS-PAGE lysis buffer. Lysates were transferred to 1.5 ml tubes and sonicated for 3 min and total protein amount were quantified using BCA Protein Assay Kit (Pierce). Equal amount of protein (30 μg) was loaded on SDS-PAGE gels.
A HRP-conjugated secondary antibody (Rockland) was employed to detect immune-reactive bands using enhanced chemiluminescence (ECL Western Blotting Substrate, Pierce). Quantification of protein bands was done by densitometry using ImageJ software.
The percentage levels were normalized to the media alone condition, which correspond to 100% protein synthesis. […]

[2] = HEK293T cells carrying ATF4 luciferase reporter, 100 nM thapsigargin, 3 hours
[3] = unstressed CHO cells (without Tg), 1 μM test compound, 2 hours, media alone = 100%

pIC50 (ATF4; [2])	Compound	activity at 1 µM [1, 3] [%]	pIC50 (ATF4; 3 h)	activity at 1 µM ([1]; CHO, 2 h) [%]
< 6.00	O=C(Nc1ccc2cc(Cl)ccc2n1)[C@H]1CC[C@H](c2nnc(C3CCC(C(F)(F)F)CC3)o2)CC1 (stereo partly drawn) [Compound 29, trans-N-(6-chloroquinolin-2-yl)-4-(5-(4-(trifluoromethyl)cyclohexyl)-1,3,4-oxadiazol-2-yl)cyclohexanecarboxamide]	11.5		
6.00 to 7.00	O=C(Nc1ccc2cc(Cl)ccc2n1)[C@H]1CC[C@H](c2nnc([C@H]3CC[C@H](C(F)(F)F)CC3)o2)CC1 [Compound 30, trans-N-(6-chloroquinolin-2-yl)-4-(5-(trans-4-(trifluoromethyl)cyclohexyl)-1,3,4-oxadiazol-2-yl)cyclohexanecarboxamide]	16.7		
< 6.00	O=C(Nc1ccc2cc(Cl)ccc2n1)[C@H]1CC[C@H](c2nnc([C@H]3CC[C@@H](C(F)(F)F)CC3)o2)CC1 [Compound 31, trans-N-(6-chloroquinolin-2-yl)-4-(5-(cis-4-(trifluoromethyl)cyclohexyl)-1,3,4-oxadiazol-2-yl)cyclohexanecarboxamide]	4.9		
	O=C(Nc1ccc2cc(Cl)ccc2n1)[C@H]1CC[C@H](c2nc(-c3ccc(Cl)cc3)co2)CC1 [Compound 32, trans-4-(4-(4-chlorophenyl)oxazol-2-yl)-N-(6-chloroquinolin-2-yl)cyclohexanecarboxamide]		< 6.00	136
	O=C(Nc1ccc2cc(Cl)ccc2n1)[C@H]1CC[C@H](c2nc(-c3ccc(Cl)cc3)cs2)CC1 [Compound 33, trans-4-(4-(4-chlorophenyl)thiazol-2-yl)-N-(6-chloroquinolin-2-yl)cyclohexanecarboxamide]		< 6.00	11.4
	O=C(COc1ccc(Cl)c(F)c1)N[C@H]1CC[C@H](c2nc(-c3ccc(Cl)cc3)cs2)CC1 [Compound 34, trans-2-(4-chloro-3-fluorophenoxy)-N-(4-(4-(4-chlorophenyl)thiazol-2-yl)cyclohexyl)acetamide]		> 8.00	83.4
> 8.00	O=C(COc1ccc(Cl)c(F)c1)NN1CCC(c2nnc(-c3ccc(Cl)cc3)o2)CC1 [Compound 35, 2-(4-chloro-3-fluorophenoxy)-N-(4-(5-(4-chlorophenyl)-1,3,4-oxadiazol-2-yl)piperidin-1-yl)acetamide]	51.6		
6.00 to 7.00	O=C(COc1ccc(Cl)c(F)c1)N[C@H]1CC[C@@H](c2cnn(-c3ccc(Cl)cc3)c2)CC1 [Compound 36, cis-2-(4-chloro-3-fluorophenoxy)-N-(4-(1-(4-chlorophenyl)-1H-pyrazol-4-yl)cyclohexyl)acetamide]	6.4		
> 8.00	O=C(COc1ccc(Cl)c(F)c1)N[C@H]1CC[C@H](c2cnn(-c3ccc(Cl)cc3)c2)CC1 [Compound 37, trans-2-(4-chloro-3-fluorophenoxy)-N-(4-(1-(4-chlorophenyl)-1H-pyrazol-4-yl)cyclohexyl)acetamide]	24.3		
> 8.00	O=C(COc1ccc(Cl)c(F)c1)N[C@H]1CC[C@H](n2cnc(-c3ccc(Cl)cc3)c2)CC1 [Compound 44, trans-2-(4-chloro-3-fluorophenoxy)-N-(4-(4-(4-chlorophenyl)-1H-imidazol-1-yl)cyclohexyl)acetamide]	39.5		
7.00 to 8.00	O=C(Nc1ccc2cc(Cl)ccc2n1)[C@H]1CC[C@H](c2nnc(C3CNc4cc(Cl)ccc4O3)o2)CC1 (stereo partly drawn) [Compound 45, trans-4-(5-(6-chloro-3,4-dihydro-2H-benzo[b][1,4]oxazin-2-yl)-1,3,4-oxadiazol-2-yl)-N-(6-chloroquinolin-2-yl)cyclohexanecarboxamide]	81.8		
7.00 to 8.00	O=C(Nc1ccc2cc(Cl)ccc2n1)[C@H]1CC[C@H](c2nnc(-c3ccc4cc(Cl)ccc4n3)o2)CC1 [Compound 46, trans-N-(6-chloroquinolin-2-yl)-4-(5-(6-chloroquinolin-2-yl)-1,3,4-oxadiazol-2-yl)cyclohexanecarboxamide]	11.8		
< 6.00	O=C(NCc1ccc2cc(Cl)ccc2n1)[C@H]1CC[C@H](c2nnc(-c3ccc(Cl)cc3)o2)CC1 [Compound 47, trans-4-(5-(4-chlorophenyl)-1,3,4-oxadiazol-2-yl)-N-((6-chloroquinolin-2-yl)methyl)cyclohexanecarboxamide]	2		
7.00 to 8.00	O=C(Nc1ccc2cc(Cl)ccc2n1)[C@H]1CC[C@H](c2nnc([C@H]3C[C@@H](OC(F)(F)F)C3)o2)CC1 [Compound 48, trans-N-(6-chloroquinolin-2-yl)-4-(5-(cis-3-(trifluoromethoxy)cyclobutyl)-1,3,4-oxadiazol-2-yl)cyclohexanecarboxamide]	22.4		
7.00 to 8.00	O=C(Nc1ccc2cc(Cl)ccc2n1)[C@H]1CC[C@H](c2nnc(Cc3ccc(Cl)cc3)o2)CC1 [Compound 237, trans-4-(5-(4-chlorobenzyl)-1,3,4-oxadiazol-2-yl)-N-(6-chloroquinolin-2-yl)cyclohexanecarboxamide]	51.3		
> 8.00	O=C(COc1ccc(Cl)c(F)c1)N[C@H]1CC[C@H](c2nnc(Cc3ccc(Cl)cc3)o2)CC1 [Compound 238, 2-(4-chloro-3-fluorophenoxy)-N-(trans-4-(5-(4-chlorobenzyl)-1,3,4-oxadiazol-2-yl)cyclohexyl)acetamide]	74.6		
> 8.00	O=C(N[C@H]1CC[C@H](c2nnc(Cc3ccc(Cl)cc3)o2)CC1)c1ccc2cc(Cl)ccc2n1 [Compound 239, 6-chloro-N-(trans-4-(5-(4-chlorobenzyl)-1,3,4-oxadiazol-2-yl)cyclohexyl)quinoline-2-carboxamide]	197		
> 8.00	O=C(COc1ccc(Cl)c(F)c1)NN1CCC(c2nnc(COc3ccc(Cl)cc3)o2)CC1 [Compound 240, 2-(4-chloro-3-fluorophenoxy)-N-(4-(5-((4-chlorophenoxy)methyl)-1,3,4-oxadiazol-2-yl)piperidin-1-yl)acetamide]	42.3		
> 8.00	O=C(COc1ccc(Cl)c(F)c1)NN1CCC(c2nnc([C@H]3C[C@@H](OC(F)(F)F)C3)o2)CC1 [Compound 242, 2-(4-chloro-3-fluorophenoxy)-N-(4-(5-(cis-3-(trifluoromethoxy)cyclobutyl)-1,3,4-oxadiazol-2-yl)piperidin-1-yl)acetamide]	23		
7.00 to 8.00	O=C(COc1ccc(Cl)c(F)c1)N[C@H]1CC[C@H](c2nnc([C@H]3C[C@@H](C(F)(F)F)C3)o2)CC1 [Compound 243, trans-2-(4-chloro-3-fluorophenoxy)-N-(4-(5-(cis-3-(trifluoromethyl)cyclobutyl)-1,3,4-oxadiazol-2-yl)cyclohexyl)acetamide]	-39.1		
> 8.00	O=C(COc1ccc(Cl)c(F)c1)N[C@H]1CC[C@H](c2nnc(Cc3ccc(Cl)c(F)c3)o2)CC1 [Compound 244, N-(trans-4-(5-(4-chloro-3-fluorobenzyl)-1,3,4-oxadiazol-2-yl)cyclohexyl)-2-(4-chloro-3-fluorophenoxy)acetamide]	94		
> 8.00	O=C(N[C@H]1CC[C@H](c2nnc(Cc3ccc(Cl)cc3)o2)CC1)c1cc2cc(Cl)ccc2o1 [Compound 247, trans-5-chloro-N-(4-(5-(4-chlorobenzyl)-1,3,4-oxadiazol-2-yl)cyclohexyl)benzofuran-2-carboxamide]	278		
7.00 to 8.00	O=C(Nc1ccc2cc(Cl)ccc2n1)[C@H]1CC[C@H](c2cnn(-c3ccc(Cl)cc3)c2)CC1 [Compound 250, trans-4-(1-(4-chlorophenyl)-1H-pyrazol-4-yl)-N-(6-chloroquinolin-2-yl)cyclohexanecarboxamide]	25		
